Data as given in patent publication US20240294467A1, “USP9X Inhibitors” (ProDeg, LLC, priority 2021, published 2024).

What was measured:
MDA-MB-231 cells = assay: WST-1 cell viability assay; type: cell-based; settings: co-treatment of 10 μM Compound 5A
Description: Compound Compound 9A was tested for the ability to inhibit the proliferation of Mia-Paca-2 pancreatic cancer cells. Mia-Paca-2 and MDA-MB-231 cells were seeded into the wells of a 96 well tissue culture plate in complete medium (10% fetal calf serum) and incubated overnight at 37° C./5% CO2). The medium was exchanged for fresh medium containing varying concentrations of Compound 9A and the plate was incubated for 72 hours at 37° C./5% CO2. The viability of cells at the end of this incubation was assessed with the WST-1 reagent. To 10 ml of warm (37° C.) complete medium, 1 ml WST-1 reagent was added. The medium from the wells of the plate with the Mia-Paca-2 cells was removed and replaced with 100 μL of the WST-1 reagent in complete medium. The plate was incubated at 37 37° C./5% CO2. At timed intervals the absorbance at 450 nm was determined for each well in a UVNis plate reader. For each well the slope of the plot of the absorbance 450 nm vs time was determined. The readings were normalized to that of the wells for the untreated control and a dose-response curve was plotted. A fit to the data was made from a four parameter, variable slope program (GraphPad Prism) and the IC50 was determined.
The TNBC cell line MDA-MB-231 express high levels of Mcl-1 and USP9X in addition to Bcl-2 and Bcl-xL. MDA-MB-231 cells were treated with ABT737 for 72 hours at varying concentrations and underwent western blot analysis.

Mcl-1 = assay: Capture ELISA of Mcl-1 and ubiquitylated Mcl-1 in MIA-PaCa-2 cells; type: cell-based, human; settings: 24 hours
Description: MIA-PaCa-2 cells were treated with Compound 7A at 25 μM, 12.5 μM, 6.25 μM, and 3.125 μM, respectively, for 24 hours. Capture ELISA of Mcl-1 was performed using a dilution series of MIA-PaCa-2 cell lysates equalized for total protein in a 96-well plate coated with sheep anti-human Mcl-1 (R&D Systems, #AF8281). Detection of Mcl-1 was performed using biotinylated sheep anti-human Mcl-1 followed by streptavidin-horseradish peroxidase and TMB development. For detection of ubiquitylated Mcl-1 the same capture conditions were used but employing a biotinylated mouse anti-human ubiquitin antibody (R&D Systems, #MAB701), again detecting with streptavidin-horseradish peroxidase and TMB development. Lysate samples were run in triplicate and percentages were calculated based on the signal generated from cell lysates with no compound added (vehicle control samples). […] With 12.5 μM Compound 7A, Mcl-1 declined by about 25.0% whereas ubiquitylated Mcl-1 increased by about 14.0%.

| SMILES | enhancement in ABT737's potency / sensitivity of cells to ABT737 (MDA-MB-231 cells) [fold] | Mcl-1 decline (Mcl-1; 12.5 μM) | ubiquitylated Mcl-1 increase (Mcl-1; 12.5 μM) | Mcl-1 decline (Mcl-1; 25 μM) | ubiquitylated Mcl-1 increase (Mcl-1; 25 μM) |
| --- | --- | --- | --- | --- | --- |
| CN1CCOc2ccc(cc2)C(=O)NCc2cccc(c2)C(=O)N[C@@H](CC(C)(C)C)C(=O)Nc2ccc(cc2)CCN(C)C(=O)CC(C)(C)CC1=O [Compound 5A] | 5 | – | – | – | – |
| CN1CCOc2ccc(cc2)C(=O)NCc2ccc(F)c(c2)C(=O)N[C@@H](CC(C)(C)C)C(=O)Nc2ccc(cc2)CCN(C)C(=O)CC(C)(C)CC1=O [Compound 7A] | – | about 25.0% | about 14.0% | about 23.0% | about 27.5% |
